Measurements: publication PMC8388125, “Kinetic and Structural Characterization of the Self-Labeling Protein Tags HaloTag7, SNAP-tag, and CLIP-tag” (Biochemistry, 2021)

Tests used:
HaloTag7 (HT7) [1] = target: T1, HaloTag7 (HT7) (Rhodococcus sp., UniProt P59336, A155T/A167V/A224E/C128F/C176G/D78G/E160K/E257K/G292T/H272N/K175M/K195N/L47V/L88M/N227D/P291S/S2A/S58T/T264A/V172T/Y273L/Y87F); assay: HT7 competitive labeling kinetics against CA-Alexa488; format: biochemical; conditions: HT7, nonfluorescent substrates, competition with CA-Alexa488, 37 °C
T1 construct: made in house; host or cells: E. coli BL21(DE3)-pLysS
T1 sequence (P59336 other isoform, or with tags, fused parts or gaps with the stated changes): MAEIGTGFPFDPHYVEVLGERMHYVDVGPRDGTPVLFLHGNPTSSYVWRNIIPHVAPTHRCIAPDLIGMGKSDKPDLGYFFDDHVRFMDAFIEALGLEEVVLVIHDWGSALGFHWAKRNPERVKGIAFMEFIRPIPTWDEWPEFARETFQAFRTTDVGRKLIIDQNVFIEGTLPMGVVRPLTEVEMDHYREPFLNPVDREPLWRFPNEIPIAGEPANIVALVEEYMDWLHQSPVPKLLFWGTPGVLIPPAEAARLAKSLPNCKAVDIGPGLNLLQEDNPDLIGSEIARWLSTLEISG
Method: Competitive kinetics were measured by recording FP over time using a microplate reader (Spark20M, Tecan). The final concentrations of CA-Alexa488 (50 nM) and HT7 protein (200 nM) remained constant with varying concentrations of nonfluorescent substrates (0–1 μM) in activity buffer supplemented with 0.5 g/L BSA. Assays were performed in black nonbinding flat bottom 96-well plates with a final reaction volume of 200 μL. Labeling reactions were started by adding the HT7 protein to wells containing CA-Alexa488 and nonfluorescent substrates using an electronic 96-channel pipettor (Integra Bioscience Corp., Hudson, NH). The FP of free CA-Alexa488 was measured to obtain a baseline.
Data were fitted to a simplified kinetic competition model (eqs 19 and 20) described by differential eqs 21–25 using DynaFit. The dead time of the measurements and baseline FP value were put in as fixed parameters. Standard deviations (normal distribution verified) and confidence intervals of fitted parameters were estimated with the Monte Carlo method with standard settings (N = 1000, 5% worst fits discarded). [drawing 19] 19 [drawing 20] 20 where P is the SLP protein, S is the fluorescent SLP substrate, I is the nonfluorescent SLP substrate (inhibitor), PS is the protein–fluorescent substrate conjugate, and PI is the protein–nonfluorescent substrate conjugate. [drawing 21] 21 [drawing 22] 22 [drawing 23] 23 [drawing 24] 24 [drawing 25] 25

HT7^D106A [2] = target: T2, HT7^D106A (Rhodococcus sp., UniProt P59336, A155T/A167V/A224E/C128F/C176G/D106A/D78G/E160K/E257K/G292T/H272N/K175M/K195N/L47V/L88M/N227D/P291S/S2A/S58T/T264A/V172T/Y273L/Y87F); assay: Affinity of HT7^D106A for CA-Ac via FP competition assay against CA-TMR; format: binding
T2 construct: made in house; host or cells: E. coli BL21(DE3)-pLysS
T2 sequence (P59336 other isoform, or with tags, fused parts or gaps with the stated changes): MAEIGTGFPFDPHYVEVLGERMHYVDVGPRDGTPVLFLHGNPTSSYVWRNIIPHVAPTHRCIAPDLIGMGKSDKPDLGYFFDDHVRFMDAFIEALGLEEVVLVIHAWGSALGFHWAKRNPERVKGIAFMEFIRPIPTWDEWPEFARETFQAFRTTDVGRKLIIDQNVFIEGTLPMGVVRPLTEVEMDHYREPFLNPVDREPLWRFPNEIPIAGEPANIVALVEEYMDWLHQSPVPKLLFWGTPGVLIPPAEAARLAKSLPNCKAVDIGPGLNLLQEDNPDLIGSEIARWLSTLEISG
Method: The binding affinity of HT7^D106A for CA-Ac was determined by a fluorescence polarization competition assay against CA-TMR. Therein, 5 μM protein and 50 nM CA-TMR were titrated against CA-Ac concentrations ranging from 80 μM to 10 mM in activity buffer supplemented with 0.5 g/L BSA. Assays were performed in low-volume nonbinding black 384-well plates (Corning Inc.) with a final volume of 20 μL using a microplate reader (Spark20M, Tecan). Obtained FP values were averaged and fitted to a four-parameter logistic curve (eq 3) to estimate the I50 value. The lower plateau was fixed to the measured FP value of the free dye to improve the fit. The dissociation constant of CA-Ac was calculated as described by Rossi and Taylor.[35] [drawing 3] 3 where FPmin is the fluorescence polarization of the free fluorophore (lower plateau), FPmax is the maximal fluorescence polarization of the fully bound fluorophore (upper plateau), I50 is the half-maximal effective concentration, and [ligand] is the ligand concentration.
(§1) Free binding energies were calculated from Kd values according to eq 4: [drawing 4] 4 where ΔG is the free binding energy, R is the universal gas constant, T is the temperature, and Kd is the dissociation constant.

[3] = tested on: HOB (halo-based oligonucleotide binder, HT7 variant); assay: HOB labeling kinetics via stopped flow (fluorescence anisotropy); format: biochemical, Rhodococcus sp.
Method: (§2) Labeling kinetics of HT7 with CA-TMR, CA-JF549, CA-CPY, CA-LIVE580, and CA-JF669 and labeling kinetics of HOB with CA-TMR were measured by recording fluorescence anisotropy changes over time using a BioLogic SFM-400 stopped-flow instrument (BioLogic Science Instruments, Claix, France) in a single-mixing configuration at 37 °C. HT7 protein and substrates in activity buffer were mixed in a 1:1 stoichiometry to reach a recordable speed for these fast reactions and to increase the information content of the traces. Concentrations were varied from 0.125 to 1 μM. The anisotropy of the free substrate was measured to obtain a baseline.
Kinetic stopped-flow data were preprocessed using a custom R script.[36],[37] Recorded pretrigger time points were removed, and time points were adjusted to start at time zero. Values from replicates were averaged. The anisotropy of the free dye was calculated by averaging anisotropy values of the baseline measurements. Preprocessed data were fitted to a kinetic model (eqs 5 and 6) described by differential eqs 7–10 using the DynaFit software.[38] The anisotropy of the free dye and the mixing delay of the stopped-flow machine were set as fixed offset and delay parameters in DynaFit. […] In the case of SNAP kinetics with BG-TMR, the substrate concentration was fitted by DynaFit to rule out quantification errors of the BG-quenched fluorophore. […]

HaloTag7 (HT7) [4] = target: T1, HaloTag7 (HT7); assay: HT7 labeling kinetics via stopped flow (fluorescence anisotropy); format: biochemical
Method: as §2
Kinetic stopped-flow data were preprocessed using a custom R script.[36],[37] Recorded pretrigger time points were removed, and time points were adjusted to start at time zero. Values from replicates were averaged. The anisotropy of the free dye was calculated by averaging anisotropy values of the baseline measurements. Preprocessed data were fitted to a kinetic model (eqs 5 and 6) described by differential eqs 7–10 using the DynaFit software.[38] The anisotropy of the free dye and the mixing delay of the stopped-flow machine were set as fixed offset and delay parameters in DynaFit. It was assumed that the protein substrate complex and the reacted product are contributing equally to the anisotropy signal. […] Standard deviations (normal distribution verified) and confidence intervals of fitted parameters were estimated with the Monte Carlo method[39] with standard settings (N = 1000, 5% worst fits discarded). In the case of SNAP kinetics with BG-TMR, the substrate concentration was fitted by DynaFit to rule out quantification errors of the BG-quenched fluorophore. Accurate fitting of the concentration was ensured by including conditions in which protein is limiting and no maximum FP value was reached.

HT7^D106A [5] = target: T2, HT7^D106A; assay: Affinity of HT7^D106A for CA substrates by fluorescence polarization; format: binding
Method: Binding affinities of HT7^D106A or HOB^D106A for chloroalkane (CA) substrates were determined by fluorescence polarization (FP, eq 1) measurements using a microplate reader (Spark20M, Tecan Group AG, Männedorf, Switzerland). The fluorescent substrates (10 nM) were titrated against different protein concentrations (0–250 μM) in activity buffer supplemented with 0.5 g/L bovine serum albumin (BSA). Assays were performed in black low-volume nonbinding 384-well plates (Corning Inc., Corning, NY) with a final volume of 20 μL. Obtained FP values were averaged and fitted to a single-site binding model (eq 2) to estimate Kd values for each fluorescent substrate. The FP value of each dye fully reacted with the native HT7 was used to improve fitting of the upper plateau of the curves by adding an extra data point at a protein concentration of 0.1 M. [drawing 1] 1 where FP is the fluorescence polarization, I∥ is the fluorescence intensity parallel to the excitation light polarization, I⊥ is the fluorescence intensity perpendicular to the excitation light polarization, and G is the grating factor (G = I∥/I⊥). [drawing 2] 2 where FPmin is the fluorescence polarization of the free fluorophore (lower plateau), FPmax is the maximal fluorescence polarization of fully bound fluorophore (upper plateau), Kd is the dissociation constant, and [protein] is the protein concentration.
as §1

SNAP^C145A = target: T3, SNAP^C145A (Homo sapiens, UniProt P16455, A127T/A154D/C145A/C150Q/C62A/G131K/G132T/G153L/K125A/K32I/L33F/M134L/N157G/Q115S/Q116H/R128A/R135S/S151G/S152D/S159E); assay: Affinity of SNAP^C145A for BG and CP fluorescent substrates by fluorescence polarization; format: binding; conditions: SNAP^C145A, fluorescence polarization, room temperature
T3 construct: made in house; host or cells: E. coli BL21(DE3)-pLysS
T3 sequence (P16455 1-182 K32I/L33F/C62A/Q115S/Q116H/K125A/A127T/R128A/G131K/G132T/M134L/R135S/C145A/C150Q/S151G/S152D/G153L/A154D/N157G/S159E limits assumed): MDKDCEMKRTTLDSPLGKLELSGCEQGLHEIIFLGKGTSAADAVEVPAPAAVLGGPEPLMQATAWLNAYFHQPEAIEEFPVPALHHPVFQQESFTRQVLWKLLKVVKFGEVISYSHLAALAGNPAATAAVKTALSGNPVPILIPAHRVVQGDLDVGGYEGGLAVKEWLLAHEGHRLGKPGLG
Method: Binding affinities of SNAP^C145A and SNAPf^C145A for BG-Alexa488, CP-Alexa488, BG-fluorescein, CP-fluorescein, BG-MAP555, BG-JF549, BG-TMR(6), BG-TMR(5), CP-TMR, BG-CPY(6), BG-CPY(5), CP-CPY, BG-SiR, CP-SiR, BG-JF646, BG-Atto565, BG-Atto590, BG-sulfo-Cy3, BG-Cy3, BG-sulfo-Cy5, and BG-Cy5 were determined by fluorescence polarization in a manner analogous to that for HT7 affinities for CA substrates described above with the following changes. Fluorescent substrates were titrated at a final concentration of 50 nM against protein concentrations ranging from 0 to 250 μM at room temperature using 0.1 g/L BSA and 1 mM DTT (SNAP-FP buffer). The FP value of each dye fully reacted with the native SNAP/SNAPf was used to improve fitting of the upper plateau of the curves by adding an extra data point at a protein concentration of 0.005 M.

HT7^D106A [6] = target: T2, HT7^D106A; assay: Affinity of HT7 for methyl-amide fluorophores by fluorescence polarization; format: binding
Method: Binding affinities of HT7 for methyl-amide fluorophores were determined by fluorescence polarization in a manner analogous to that of CA substrates described above with the following changes. Fluorescent substrates were used at a final concentration of 50 nM, and measurements were performed at room temperature.
as §1

CC(=O)NCCOCCOCCCCCCCl [CA-Ac, acetylated chloroalkane]
kapp (value ± standard deviation) (HaloTag7 (HT7) [1]): (1.53 ± 0.02) × 10^3 M^–1 s^–1 | Kd (HT7^D106A [2]): 2620 µM | free binding energy (ΔG) (HT7^D106A [2]; HT7^D106A, calculated from Kd): −15.3 kJ mol^–1

CN(C)c1ccc2c(-c3cc(C(=O)NCCOCCOCCCCCCCl)ccc3C(=O)[O-])c3ccc(=[N+](C)C)cc-3oc2c1 [CA-TMR, chloroalkane-PEG-tetramethylrhodamine]
fold decrease in kapp of HOB compared to HT7 ([3]; HOB vs HT7): 2.09 ± 0.01 fold | k2 (± S.D.) ([3]; HOB, stopped flow, model 2): 5.05 (± 0.13) s-1 | Kd (HaloTag7 (HT7) [4]): 0.327 µM | k2 (± S.D.) (HaloTag7 (HT7) [4]; HT7, stopped flow, model 2): 8.06 (± 0.29) s-1 | Kd (HT7^D106A [5]): 6.24 µM | fold decrease in affinity of the 5-substituted compared to the 6-substituted rhodamine substrate (HT7^D106A [5]; HT7^D106A): 6.31 fold | free binding energy (ΔG) (HT7^D106A [5]; HT7^D106A, calculated from Kd): 30.9 kJ mol^–1

CNC(=O)c1ccc(C(=O)[O-])c(-c2c3ccc(=[N+](C)C)cc-3oc3cc(N(C)C)ccc23)c1 [meAm-TMR]
Kd^C145A (SNAP^C145A): no affinity could be measured | free binding energy (ΔG) (HT7^D106A [6]; calculated from Kd): −16.7 kJ mol^–1 | Kd (HT7^D106A [6]; fluorescence polarization, room temperature): 1510 µM
